Results taken from patent publication US20240041830A1, “CIRCULATING BIOMARKERS OF RESPONSE TO PD-1/PD-L1 BLOCKADE AND GSK-3 INHIBITION” (Brown University, priority 2022, published 2024).

System: tumor biopsies (colorectal cancer, pancreatic cancer)
Test: GeoMx Digital Spatial Profiling of patient tumor biopsies
Assay type: in vivo, human
Excerpt: Digital spatial profiling. An Agilent Technologies hybridization oven was used for baking tissue onto slides (Agilent, Santa Clara, CA, USA). A NanoString GeoMx® Digital Spatial Profiler (DSP) instrument (NanoString, Seattle, WA, USA) was used to scan slides, identify regions of interest (ROIs), and collect photocleavable barcodes according to manufacturer instructions. A custom panel was designed to include the following proteins: Ms IgG1, Ms IgG2a, Rb IgG, GAPDH, Histone H3, S6, Beta-2-microglobulin, CD31, CD45, Ki-67, ARG1, CD11 b, CD11 c, CD14, CD163, CD39, CD40, CD68, HLA-DR, GZMB, CD20, CD3, CD34, CD4, CD56, CD66b, CD8, Foxp3, Fibronectin, 4-1BB, B7-H3, CTLA4, GITR, IDO1, LAG3, OX40L, STING, Tim-3, VISTA, Bcl-2, ER-α, EpCAM, Her2, MART1, NY-ESO-1, PR, PTEN, PanCk, SMA, CD127, CD25, CD27, CD44, CD45RO, CD80, ICOS, PD-1, PD-L1, and PD-L2. An Eppendorf MasterCycler Gradient Thermal Cycler was used to generate the Illumina sequencing libraries from the photocleaved tags. (Eppendorf, Hamburg, Germany). An Agilent Fragment Analyzer (RRID: SCR_019417) was used for library size distribution analysis with a high-sensitivity NGS Fragment Kit (Cat #DNF-474-0500, Agilent, Santa Clara, CA, USA). qPCR for quantification was run using an Illumina-compatible KAPA Library Quantification Kits (ROX Low) (cat #KK4873) on an Applied Biosystems ViiA 7 Real-Time qPCR/PCR Thermal Cycler System (Applied Biosystems, San Francisco, CA, USA) and was analyzed using QuantStudio software (RRID: SCR_018712). Sequencing was performed using a NextSeq 500/550 High Output Kit v2.5 (75 Cycles) kit (cat #20024906) on an Illumina Sequencing NextSeq 550 System (RRID: SCR_016381, Illumina, San Diego, CA, USA). The initial annotated dataset went through quality control (QC) to check if housekeeper genes and background (isotype) control molecules were themselves correlated with the predictors of interest. Every ROI was tested for raw sequencing reads (segments with <1000 raw reads were removed), % sequencing saturation, defined as (1-deduplicated reads/aligned reads)%, segments below ˜50% were not analyzed), and nuclei count per segment, for which >100 nuclei per segment is generally recommended. Both immunoglobulins (lgGs) and housekeeper genes were highly correlated with one another. Signal to noise (SNR) ratio was calculated using background probes and all probes were detected above the background in at least one ROI. data were normalized based on background IgG expression and all normalization factors were well distributed. Data analysis and visualization were generated using R (RRID: SCR_001905; R Development Core Team, 2020).
PanCK+ expression of immunosuppressive CD39 negatively correlated with time-on-treatment (Tx time) while CD45+ expression of monocyte/macrophage marker CD163 positively correlated with Tx time. The inventors used GeoMx Digital Spatial Profiling (DSP) technology to profile the expression of fifty-nine proteins in tumor biopsies (N=12) from patients treated with elraglusib (N=7). A total of 42% (N=5) of the tumor biopsies analyzed were collected near or before treatment start (pre-treatment) and 58% (N=7) of the biopsies analyzed were collected from post-treatment (average time-on-treatment (Tx time) at post-treatment biopsy: 270 days) (FIG. 7A). Primary tumor types included colorectal cancer (N=4, 33%) and pancreatic cancer (N=8, 67%), while metastatic biopsy tissue sites included lung (N=2, 17%), liver (N=7, 58%), rectum (N=2, 17%), and pleura (N=1, 8%). the inventors analyzed five paired tumor biopsies ([…], 83%), and two unpaired biopsies (N=2 slides total, 17%). Half (N=6, 50%) of the tumor sections were needle biopsies and half (N=6, 50%) were tissue biopsies. All patients included in this analysis were considered responders based on the definition used in the Phase 1 trial that treatment response is equal to disease control greater than 16 weeks. […]

[1] = CD45+ regions, post- vs pre-treatment biopsies
[2] = tumor-infiltrating CD45+ segments, post- vs pre-treatment

Cn1cc(C2=C(c3coc4ccc(F)cc34)C(=O)NC2=O)c2cc3c(cc21)OCO3 [elraglusib]
CD11 b protein expression [1]: decreased | CD11c protein expression [1]: decreased | CD40 protein expression [1]: decreased | CD66b protein expression [1]: decreased | CD68 protein expression [1]: decreased | CD80 protein expression [1]: decreased | IDO1 protein expression [1]: decreased | LAG3 protein expression [1]: decreased | PD-1 protein expression [1]: decreased | PD-L1 protein expression [1]: decreased | PD-L2 protein expression [1]: decreased | VISTA protein expression [1]: decreased | PD-L1 expression (PanCK+ segments, post- vs pre-treatment biopsies): downregulation | ARG1 protein expression [2]: reduced | B2M protein expression [2]: reduced | B7-H3 protein expression [2]: elevated | CD11c protein expression [2]: reduced | CD34 protein expression [2]: reduced | CD44 protein expression [2]: reduced | CD45R0 protein expression [2]: reduced | CD56 protein expression [2]: reduced | CD66b protein expression [2]: reduced | CD68 protein expression [2]: reduced | CD80 protein expression [2]: reduced | CD127 protein expression [2]: elevated | CTLA4 protein expression [2]: elevated | GITR protein expression [2]: reduced | HLA-DR protein expression [2]: reduced | IDO1 protein expression [2]: reduced | Ki-67 protein expression [2]: reduced | OX4OL protein expression [2]: elevated | PD-1 protein expression [2]: reduced | PD-L1 protein expression [2]: reduced | PD-L2 protein expression [2]: reduced | PTEN protein expression [2]: reduced | VISTA protein expression [2]: reduced
